In patent publication US11571423B2, “Small molecule modulators of human sting” (Curadev Pharma Limited, priority 2017, dated 2023):

Molecular target: hSTING(R232) (Homo sapiens, UniProt Q86WV6, H232R)
Assay: Luciferase reporter assay in HEK293T-hSTING-Luciferase cells, R232 (wild type) human STING
Type: cell-based
Conditions: 20 hr stimulation, read-out: R232 human activity (EC50 range)
Text: Stable Cell Line Generation • a) Stable STING expressing cells—Stable HEK293T STING-expressing cell lines were generated using plasmids purchased from Invivogen, CA, USA, that contain STING cDNA cloned into the pUNO-1 vector under hEF1-HTLV promoter and containing the Blasticidin selection cassette. The plasmids hSTING(R232), hSTING(H232), hSTING(HAQ) were directly procured from Invivogen while hSTING (AQ) and hSTING (Q) were derived from hSTING(HAQ) and hSTING (R232) plasmids respectively by using a PCR based site directed mutagenesis method. These vectors were individually transfected into HEK293T cells using Lipofectamine (Invitrogen) and transfected cells were selected under Blasticidin selection. These transfected cells were further subjected to clonal selection using the limiting dilution method to obtain clonally pure populations of HEK cells transfected with each of the above mentioned human STING variants. Only those clones were selected in which ligand independent activation of STING was minimal. • b) Stable Luciferase reporter gene expressing cells—Stable HEK293T Luciferase reporter gene expressing cell lines were generated using pCDNA4 plasmids under an IRF-inducible promoter. This promoter is comprised of five tandem interferon-stimulated response elements (ISRE) fused to an ISG54 minimal promoter. This vector was transfected into HEK293T cells using Lipofectamine (Invitrogen) and transfected cells were selected under Zeocin selection. These transfected cells were further subjected to clonal selection using the limiting dilution method to obtain clonally pure populations of HEK cells transfected the Luciferase reporter construct. Only those clones were selected in which ligand independent induction of luciferase was minimal.
5×10^5 clonally selected HEK293T-hSTING-Luciferase cells were seeded in 384-well plates in growth medium and stimulated with novel compounds. After 20 hr of stimulation supernatant were removed and secretary reporter gene activity were measured using the Quanti-Luc detection system (Invivogen) on a Spectramax i3X luminometer.
In the tables below, EC50 value ranges for exemplary compounds are given.
All compounds were first tested in a primary screen to obtain a ‘fold-induction’ over baseline levels of protein activity.

Chain of hSTING(R232) (Q86WV6 whole entry H232R): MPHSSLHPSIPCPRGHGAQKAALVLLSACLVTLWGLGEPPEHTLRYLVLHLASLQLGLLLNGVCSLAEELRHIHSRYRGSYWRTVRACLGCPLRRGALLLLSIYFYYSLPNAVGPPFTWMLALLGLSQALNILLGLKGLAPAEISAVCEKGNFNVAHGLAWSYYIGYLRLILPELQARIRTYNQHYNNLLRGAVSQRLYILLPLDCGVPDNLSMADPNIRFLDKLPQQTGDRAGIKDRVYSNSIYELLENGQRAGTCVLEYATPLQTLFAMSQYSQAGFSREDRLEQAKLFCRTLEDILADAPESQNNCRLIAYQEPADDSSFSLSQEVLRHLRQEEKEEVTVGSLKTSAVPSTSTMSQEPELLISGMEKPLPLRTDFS

Compound | EC50
Cc1nc(CN2C(=O)N(C)Cc3ccc(C(=O)NCc4c(F)cc(F)cc4F)cc32)co1 [Example 36, 3-methyl-1-((2-methyloxazol-4-yl)methyl)-2-oxo-N-(2,4,6-trifluorobenzyl)-l,2,3,4-tetrahydroquinazoline-7-carboxamide] | > 10 µM
CN1Cc2ccc(C(=O)NCc3c(F)cc(F)cc3F)cc2N(Cc2cn(C)cn2)C1=O [Example 37, 3-methyl-1-((1-methyl-1H-imidazol-4-yl)methyl)-2-oxo-N-(2,4,6-trifluorobenzyl)-1,2,3,4-tetrahydroquinazoline-7-carboxamide] | > 10 µM
Cc1ccc(-c2nc(CN3C(=O)N(C)Cc4ccc(C(=O)NCc5c(F)cc(F)cc5F)cc43)c(C)o2)cc1 [Example 40, 3-methyl-1-((5-methyl-2-(p-tolyl)oxazol-4-yl)methyl)-2-oxo-N-(2,4,6-trifluorobenzyl)-1,2,3,4-tetrahydroquinazoline-7-carboxamide] | > 10 µM
COc1cccc(F)c1CNC(=O)c1ccc2c(c1)N(Cc1c(F)cccc1Cl)C(=O)N(C)C2 [Example 41, 1-(2-chloro-6-fluorobenzyl)-N-(2-fluoro-6-methoxybenzyl)-3-methyl-2-oxo-1,2,3,4-tetrahydroquinazoline-7-carboxamide] | > 10 µM
CN1Cc2ccc(C(=O)NCc3cccc4c3OCO4)cc2N(Cc2c(F)cccc2Cl)C1=O [Example 43, N-(benzo[d][1,3]dioxol-4-ylmethyl)-1-(2-chloro-6-fluorobenzyl)-3-methyl-2-oxo-1,2,3,4-tetrahydroquinazoline-7-carboxamide] | > 10 µM
CN1Cc2ccc(C(=O)NCc3cccc4c3OCCO4)cc2N(Cc2c(F)cccc2Cl)C1=O [Example 44, l-(2-chloro-6-fluorobenzyl)-N-((2,3-dihydrobenzo[b][1,4]dioxin-5-yl)methyl)-3-methyl-2-oxo-1,2,3,4-tetrahydroquinazoline-7-carboxamide] | > 10 µM
CN1Cc2ccc(C(=O)NCc3c(F)cc(F)cc3F)cc2N(Cc2cn3cc(F)ccc3n2)C1=O [Example 45, 1-((6-fluoroimidazo[1,2-a]pyridin-2-yl)methyl)-3-methyl-2-oxo-N-(2,4,6-trifluorobenzyl)-l,2,3,4-tetrahydroquinazoline-7-carboxamide] | > 10 µM
COc1cccc2cc(CNC(=O)c3ccc4c(c3)N(Cc3c(F)cccc3Cl)C(=O)N(C)C4)oc12 [Example 47, 1-(2-chloro-6-fluorobenzyl)-N-((7-methoxybenzofuran-2-yl)methyl)-3-methyl-2-oxo-1,2,3,4-tetrahydroquinazoline-7-carboxamide] | > 10 µM
CN1Cc2ccc(C(=O)NCc3cc4cc([N+](=O)[O-])ccc4o3)cc2N(Cc2c(F)cccc2Cl)C1=O [Example 48, 1-(2-chloro-6-fluorobenzyl)-3-methyl-N-((5-nitrobenzofuran-2-yl)methyl)-2-oxo-1,2,3,4-tetrahydroquinazoline-7-carboxamide] | > 10 µM
CN1Cc2ccc(C(=O)NCc3cccc4occc34)cc2N(Cc2c(F)cccc2Cl)C1=O [Example 50, N-(benzofuran-4-ylmethyl)-1-(2-chloro-6-fluorobenzyl)-3-methyl-2-oxo-1,2,3,4-tetrahydroquinazoline-7-carboxamide] | > 10 µM
CN1Cc2ccc(C(=O)NCc3ccc4cnn(C)c4c3)cc2N(Cc2c(F)cccc2Cl)C1=O [Example 51, 1-(2-chloro-6-fluorobenzyl)-3-methyl-N-((1-methyl-1H-indazol-6-yl)methyl)-2-oxo-1,2,3,4-tetrahydroquinazoline-7-carboxamide] | > 10 µM
CN1Cc2ccc(C(=O)NCc3c(F)cc(F)cc3F)cc2N(Cc2ccnn2C)C1=O [Example 53, 3-methyl-1-((1-methyl-1H-pyrazol-5-yl)methyl)-2-oxo-N-(2,4,6-trifluorobenzyl)-1,2,3,4-tetrahydroquinazoline-7-carboxamide] | > 10 µM
CN1Cc2ccc(C(=O)NCc3c(F)cc(F)cc3F)cc2N(Cc2cn(C)nn2)C1=O [Example 55, 3-methyl-1-((1-methyl-1H-1,2,3-triazol-4-yl)methyl)-2-oxo-N-(2,4,6-trifluorobenzyl)-1,2,3,4-tetrahydroquinazoline-7-carboxamide] | > 10 µM

The remaining lines, values ahead:

EC50 | Compound
> 10 µM | CN1Cc2ccc(C(=O)NCc3cccc(-c4ncco4)c3)cc2N(Cc2c(F)cccc2Cl)C1=O [Example 25, 1-(2-chloro-6-fluorobenzyl)-3-methyl-N-(3-(oxazol-2-yl)benzyl)-2-oxo-1,2,3,4-tetrahydroquinazoline-7-carboxamide]
> 10 µM | CN1Cc2ccc(C(=O)NCCn3cncn3)cc2N(Cc2c(F)cccc2Cl)C1=O [Example 26, N-(2-(1H-1,2,4-triazol-l-yl)ethyl)-1-(2-chloro-6-fluorobenzyl)-3-methyl-2-oxo-1,2,3,4-tetrahydroquinazoline-7-carboxamide]
1 to 10 µM | CN1Cc2ccc(C(=O)NCc3cc4cc(O)ccc4o3)cc2N(Cc2c(F)cccc2Cl)C1=O [Example 27, 1-(2-chloro-6-fluorobenzyl)-N-((5-hydroxybenzof uran-2-yl)methyl)-3-methyl-2-oxo-1.2,3,4-tetrahydroquin azoline-7-carboxamide]
> 10 µM | CN1Cc2ccc(C(=O)NCc3cccc(-c4ccn(C)n4)c3)cc2N(Cc2c(F)cccc2Cl)C1=O [Example 28, 1-(2-chloro-6-fluorobenzyl)-3-methyl-N-(3-(1-methyl-1H-pyrazol-3-yl)benzyl)-2-oxo-1,2,3,4-tetrahydroquinazoline-7-carboxamide]
> 10 µM | CN1Cc2ccc(C(=O)NCc3cccc(-c4ccnn4C)c3)cc2N(Cc2c(F)cccc2Cl)C1=O [Example 29, 1-(2-chloro-6-fluorobenzyl)-3-methyl-N-(3-(1-methyl-1H-pyrazol-5-yl)benzyl)-2-oxo-1,2,3,4-tetrahydroquinazoline-7-carboxamide]
1 to 10 µM | CN1Cc2ccc(C(=O)NCc3ccccc3F)cc2N(Cc2c(F)cccc2Cl)C1=O [Example 30, 1-(2-chloro-6-fluorobenzyl)-N-(2-fluorobenzyl)-3-methyl-2-oxo-1,2,3,4-tetrahydroquinazoline-7-carboxamide]
> 10 µM | CN1CCN(c2cccc(CNC(=O)c3ccc4c(c3)N(Cc3c(F)cccc3Cl)C(=O)N(C)C4)c2)CC1 [Example 31]
1 to 10 µM | CN1Cc2ccc(C(=O)NCc3ccc4occc4c3)cc2N(Cc2c(F)cccc2Cl)C1=O [Example 32, N-(benzofuran-5-ylmethyl)-1-(2-chloro-6-fluorobenzyl)-3-methyl-2-oxo-1,2,3,4-tetrahydroquinazoline-7-carboxamide]
1 to 10 µM | Cc1cc(CN2C(=O)N(C)Cc3ccc(C(=O)NCc4c(F)cc(F)cc4F)cc32)no1 [Example 33, 3-methyl-1-((5-methylisoxazol-3-yl)methyl)-2-oxo-N-(2,4,6-trifluorobenzyl)-1,2,3,4-tetrahydroquinazoline-7-carboxamide]
> 10 µM | Cn1cnc(N2Cc3ccc(C(=O)NCc4c(F)cc(F)cc4F)cc3N(Cc3c(F)cccc3Cl)C2=O)c1 [Example 34, 1-(2-chloro-6-fluorobenzyl)-3-(1-methyl-1H-imidazol-4-yl)-2-oxo-N-(2,4,6-trifluorobenzyl)-1,2,3,4-tetrahydroquinazoline-7-carboxamide]
> 10 µM | CN1Cc2ccc(C(=O)NCc3c(F)cc(F)cc3F)cc2N(Cc2cnsn2)C1=O [Example 35, l-((l,2,5-thiadiazol-3-yl)methyl)-3-methyl-2-oxo-N-(2,4,6-trifluorobenzyl)-1,2,3,4-tetrahydroquinazoline-7-carboxamide]
1 to 10 µM | Cc1oc(-c2ccc(F)cc2)nc1CN1C(=O)N(C)Cc2ccc(C(=O)NCc3c(F)cc(F)cc3F)cc21 [Example 42, l-((2-(4-fluorophenyl)-5-methyloxazol-4-yl)methyl)-3-methyl-2-oxo-N-(2,4,6-trifluorobenzyl)-1,2,3,4-tetrahydroquinazoline-7-carboxamide]
1 to 10 µM | COc1cc(F)ccc1CN1C(=O)N(C)Cc2ccc(C(=O)NCc3c(F)cc(F)cc3F)cc21 [Example 46, l-(4-fluoro-2-methoxybenzyl)-3-methyl-2-oxo-N-(2,4,6-trifluorobenzyl)-1,2,3,4-tetrahydroquinazoline-7-carboxamide]
1 to 10 µM | CON1Cc2ccc(C(=O)NCc3c(F)cc(F)cc3F)cc2N(Cc2c(F)cccc2Cl)C1=O [Example 49, 1-(2-chloro-6-fluorobenzyl)-3-methoxy-2-oxo-N-(2,4,6-trifluorobenzyl)-1,2,3,4-tetrahydroquinazoline-7-carboxamide]
1 to 10 µM | CN1Cc2ccc(C(=O)NCc3ccc4ccoc4c3)cc2N(Cc2c(F)cccc2Cl)C1=O [Example 52, N-(benzofuran-6-ylmethyl)-1-(2-chloro-6-fluorobenzyl)-3-methyl-2-oxo-1,2,3,4-tetrahydroquinazoline-7-carboxamide]
